From patent publication US20130196050A1, “SALTY TASTE ENHANCER” (AJINOMOTO CO., INC., priority 2010, published 2013)

Biological target: T1, Human ENaC δ, β and γ subunit (Homo sapiens, UniProt P51168+P51170+P51172)
T1 construct: expressed in transfected cells; host or cells: Xenopus laevis (African clawed frog) oocytes injected with cRNA
T1 sequence (P51172 1-638 isoform P51172-1): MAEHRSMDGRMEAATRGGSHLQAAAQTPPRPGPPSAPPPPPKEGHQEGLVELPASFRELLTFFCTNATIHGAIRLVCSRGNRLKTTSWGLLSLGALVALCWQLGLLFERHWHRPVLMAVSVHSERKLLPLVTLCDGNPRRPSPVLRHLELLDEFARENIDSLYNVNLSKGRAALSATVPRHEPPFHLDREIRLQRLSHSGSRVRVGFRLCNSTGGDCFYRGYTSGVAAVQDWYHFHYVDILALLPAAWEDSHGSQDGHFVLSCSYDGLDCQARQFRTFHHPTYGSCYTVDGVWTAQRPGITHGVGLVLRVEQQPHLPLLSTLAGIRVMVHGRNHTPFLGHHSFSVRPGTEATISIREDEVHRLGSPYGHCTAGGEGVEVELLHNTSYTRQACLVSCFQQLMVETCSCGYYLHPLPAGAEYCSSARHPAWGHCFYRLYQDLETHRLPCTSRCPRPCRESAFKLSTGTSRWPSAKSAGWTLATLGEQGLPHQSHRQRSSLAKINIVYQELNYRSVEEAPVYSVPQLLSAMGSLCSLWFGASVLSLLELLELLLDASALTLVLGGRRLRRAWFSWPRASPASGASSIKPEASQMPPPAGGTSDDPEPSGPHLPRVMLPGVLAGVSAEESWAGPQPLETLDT
T1 sequence (P51168 1-640): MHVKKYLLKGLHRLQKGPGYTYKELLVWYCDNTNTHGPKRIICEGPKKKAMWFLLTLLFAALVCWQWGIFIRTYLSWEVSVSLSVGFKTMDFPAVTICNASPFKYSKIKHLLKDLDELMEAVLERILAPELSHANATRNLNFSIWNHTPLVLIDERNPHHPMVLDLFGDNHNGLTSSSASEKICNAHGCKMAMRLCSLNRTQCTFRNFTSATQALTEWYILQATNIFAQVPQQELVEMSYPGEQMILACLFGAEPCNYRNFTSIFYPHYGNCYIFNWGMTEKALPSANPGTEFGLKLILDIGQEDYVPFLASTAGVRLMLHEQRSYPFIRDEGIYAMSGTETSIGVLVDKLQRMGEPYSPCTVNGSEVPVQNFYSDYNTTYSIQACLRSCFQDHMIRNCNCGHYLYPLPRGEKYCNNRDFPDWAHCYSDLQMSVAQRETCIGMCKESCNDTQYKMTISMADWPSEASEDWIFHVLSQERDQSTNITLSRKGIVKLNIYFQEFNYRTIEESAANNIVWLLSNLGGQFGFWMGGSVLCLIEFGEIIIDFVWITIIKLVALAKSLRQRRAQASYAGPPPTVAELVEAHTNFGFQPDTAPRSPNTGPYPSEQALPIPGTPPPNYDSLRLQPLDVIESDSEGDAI
T1 sequence (P51170 1-649): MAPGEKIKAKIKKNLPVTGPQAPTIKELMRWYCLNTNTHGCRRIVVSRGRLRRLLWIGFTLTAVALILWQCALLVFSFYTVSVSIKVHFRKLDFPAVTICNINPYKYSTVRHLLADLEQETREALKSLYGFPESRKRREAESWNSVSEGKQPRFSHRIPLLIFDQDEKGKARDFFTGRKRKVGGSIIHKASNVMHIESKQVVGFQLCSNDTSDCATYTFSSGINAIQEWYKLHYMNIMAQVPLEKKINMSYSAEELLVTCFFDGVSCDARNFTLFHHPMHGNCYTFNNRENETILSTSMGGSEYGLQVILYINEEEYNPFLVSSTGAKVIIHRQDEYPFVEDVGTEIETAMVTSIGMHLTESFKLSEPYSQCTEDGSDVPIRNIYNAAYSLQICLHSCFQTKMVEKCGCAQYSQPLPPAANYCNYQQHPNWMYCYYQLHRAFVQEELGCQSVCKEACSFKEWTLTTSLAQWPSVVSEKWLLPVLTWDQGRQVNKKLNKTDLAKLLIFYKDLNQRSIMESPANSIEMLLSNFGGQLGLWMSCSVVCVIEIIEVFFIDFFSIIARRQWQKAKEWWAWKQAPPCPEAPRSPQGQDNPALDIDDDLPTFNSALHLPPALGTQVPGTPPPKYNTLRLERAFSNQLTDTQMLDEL
Test: Measurement of ENaC activation potency (two electrode voltage clamp current in ENaC-expressing oocyte)
Format: cell-based
Details: lowest concentration increasing the current value by not less than 10% vs before addition
Method: ENaC activation current value, namely, the inward current in ENaC-expressing oocyte was measured as follows.
According to the method described in Motonao Nakamura, Takao Shimizu: Experiment of African clawed frog oocyte, Experimental Medicine Vol. 11, No. 3, 224-232 (1993), oocyte was collected from African clawed frog, […], and the current value was measured by a Two Electrode Voltage Clamp technique. In the present invention, ND96 (96 mM NaCl, 2 mM KCl, 1 mM MgCl2, 5 mM Hepes, 1.8 mM CaCl2, pH 7.6) was used instead of MBS buffer in the above-mentioned document. Injector NANOLITER 2000 manufactured by World Precision Instruments was used for microinjection, OpusXpress 6000A manufactured by Molecular Devices was used for current value measurement by a Two Electrode Voltage Clamp technique, and Clampfit 10.2 software manufactured by Molecular Devices was used for data analysis.
Human ENaC δ, β and γ subunit genes shown by SEQ ID NOs: 1, 2 and 3, respectively, in the Sequence Listing were each cloned into a plasmid vector, and used as a template DNA for cRNA synthesis. cRNA was synthesized using MEGAscript kit manufactured by Ambion and according to the method of the manual of the manufacturer.
A mixture of the same amount of ENaC δ subunit cRNA (0.4 to 0.8 μg/μL), and β and γ subunits cRNA (0.4 μg/μL) was injected into the oocyte of African clawed frog at 27.6 nL per oocyte, and the oocyte was cultured for 16 hours to 72 hours. Thereafter, the oocyte was set on a measuring apparatus OpusXpress 6000A, the electrodes were inserted into the oocyte, the voltage was clamped at a level lower by −30 mV than the resting membrane potential by a Two Electrode Voltage Clamp technique, and the current value was measured.
To measure the ENaC activation potency, oocyte was stimulated with each test compound, and the minimum effective dose (hereinafter to be abbreviated as MED) of the compound at the time point when the electric current started to increase was measured. In this case, the minimum effective dose of the stimulation compound that increased the current value by not less than 10%, as compared to the current value before addition of the compound and without stimulation, was taken as MED. A smaller MED means higher ENaC activation potency.
Each test compound was directly dissolved in ND96, or first dissolved in dimethyl sulfoxide (DMSO) to 100 mM, and then prepared by diluting the solution with ND96 to a concentration used for the evaluation. The concentration of the test compound in ND96 was prepared to various concentrations within the range of 0.1 nM to 300 μm.
ND96 as a perfusion fluid was flowed at a rate of 0.5 mL/min through the measuring apparatus OpusXpress 6000A on which ENaC-expressing oocyte was set, the perfusion fluid was temporarily stopped every 3 minutes to add a test compound solution (0.25 mL) dissolved in ND96 at a rate of 0.5 mL/minute. In this way, the test compound was contacted with ENaC-expressing oocyte, and whether ENaC is activated by the compound was examined by measuring the current value. After addition of the test compound, feeding of the perfusion fluid was resumed to wash away the compound to be ready for the next addition of the compound.
The compound was added successively from a low concentration to a high concentration to stimulate ENaC-expressing oocyte. The concentrations actually added was, for example, 1 nM, 3 nM, 10 nM, 30 nM, 100 nM, 300 nM; 1 μM, 3 μM, 10 μm, 30 μm, 100 μm, 300 μm; 1.2 μM, 6 μM, 30 μm, 150 μm of one test compound. The compound was added from low concentrations to high concentrations at 3 minute intervals. The first compound was added from a low concentration to a high concentration, then the second and the third compounds were similarly added successively to the same oocyte, and changes in the current value were measured. The current value was continuously measured from the start to the end of the experiment. […]

Row | SMILES | MED value (minimum effective dose)
1 | O=C(NCCc1c[nH]c2ccc(O)cc12)c1cc(Br)ccc1O [Example 93] | 0.3 µM
2 | O=C(CCc1ccc2c(c1)OCO2)N[C@@H](Cc1c[nH]c2ccccc12)C(=O)O [Example 66] | 3 µM
3 | O=C(CCc1ccccc1)N[C@@H](Cc1ccccc1)C(=O)O [Example 72] | 1 to 3 µM
4 | O=C(N[C@@H](Cc1ccccc1)C(=O)O)c1c(O)cccc1O [Example 82] | 1 µM
5 | COC(=O)[C@H](CCc1ccccc1)NC(=O)c1c(O)cc(C)cc1O [Example 116] | 3 to 10 µM
6 | COC(=O)[C@H](Cc1c[nH]c2ccccc12)NC(=O)c1cc(Br)ccc1O [Example 92] | 3 to 10 µM
7 | COc1cccc(OC)c1C(=O)NCCc1c[nH]c2ccc(O)cc12 [Example 25] | 3 µM
8 | COC(=O)[C@H](Cc1c[nH]c2ccc(O)cc12)NC(=O)c1c(O)cccc1O [Example 10] | 3 µM
9 | O=C(N[C@@H](Cc1ccccc1)C(=O)O)c1ccc(Br)cc1O [Example 108] | 0.1 to 0.3 µM
10 | O=C(CCc1ccccc1)NC(Cc1c[nH]c2ccc(F)cc12)C(=O)O (stereo not drawn) [Example 76] | 3 µM
11 | N[C@@H](CCc1ccccc1)C(=O)Nc1ccccc1S(=O)(=O)O [Example 103] | 1 µM
12 | CCOC(=O)[C@H](Cc1ccccc1)NC(=O)c1cc(Br)ccc1O [Example 109] | 3 µM
13 | COc1ccc(CCC(=O)Nc2c(O)cccc2O)cc1O [Example 89] | 10 µM
14 | O=C(NCCc1c[nH]c2ccc(O)cc12)c1cccc(O)c1O [Example 32] | 1.2-6^ μM
15 | CC(Cc1ccccc1)(NC(=O)CCc1ccccc1)C(=O)O (stereo not drawn) [Example 75] | 3 to 10 µM
16 | COC(=O)[C@H](Cc1cn(C)c2ccccc12)NC(=O)c1c(O)cccc1O [Example 11] | 3 µM
17 | O=C(NCCc1c[nH]c2ccc(O)cc12)c1c(Cl)cccc1Cl [Example 27] | 3 µM
18 | O=C(NCCc1c[nH]c2ccccc12)c1c(O)cccc1O [Example 84] | 0.3 µM

Row | SMILES | MED value (minimum effective dose)
19 | COC(=O)[C@H](CCc1ccccc1)NC(=O)c1cc(Br)ccc1O [Example 98] | 10 µM
20 | O=C(CCc1ccccc1)N[C@@H](Cc1c[nH]c2ccc(O)cc12)C(=O)O [Example 74] | 10 µM
21 | CC(C)(C)OC(=O)N[C@@H](Cc1c[nH]c2ccccc12)C(=O)Nc1c(O)cccc1O [Example 20] | 10 µM
22 | N[C@@H](Cc1c[nH]c2ccccc12)C(=O)Nc1c(O)cccc1O [Example 22] | 3 µM
23 | COC(=O)[C@H](Cc1ccccc1)NC(=O)c1c(O)cc(C)cc1O [Example 118] | 10 µM
24 | Cc1cc(O)c(C(=O)N[C@@H](Cc2c[nH]c3ccccc23)C(=O)O)c(O)c1 [Example 113] | 0.3 µM
25 | O=C(N[C@H](Cc1c[nH]c2ccccc12)C(=O)O)c1cc(O)ccc1O [Example 41] | 1 µM
26 | Cc1cc(O)c(C(=O)N[C@@H](Cc2ccccc2)C(=O)O)c(O)c1 [Example 115] | 0.3 µM
27 | COC(=O)[C@H](Cc1ccccc1)NC(=O)c1c(O)cc(O)cc1O [Example 122] | 1 µM
28 | O=C(NCCc1c[nH]c2ccccc12)c1cc(Br)ccc1O [Example 95] | 1 µM
29 | COC(=O)[C@H](Cc1c[nH]c2ccccc12)NC(=O)c1c(O)cccc1O [Example 1, (S)-Methyl 2-(2,6-dihydroxybenzamido)-3-(1H-indol-3-yl)propanoate] | 0.6 µM
30 | O=C(NCCc1c[nH]c2ccc(O)cc12)c1ccc(Br)cc1O [Example 104] | 3 µM
31 | COC(=O)[C@H](Cc1ccccc1)NC(=O)c1ccc(Br)cc1O [Example 107] | 3 µM
32 | CN(C(=O)CCc1ccccc1)[C@@H](Cc1ccccc1)C(=O)O [Example 78] | 3 µM
33 | O=C(NCCc1c[nH]c2ccccc12)c1c(O)cc(O)cc1O [Example 125] | 1 µM
34 | N[C@@H](Cc1c[nH]c2ccccc12)C(=O)Nc1ccccc1S(=O)(=O)O [Example 119] | 0.3 µM
35 | COC(=O)[C@H](Cc1c[nH]c2ccccc12)NC(=O)c1ccc(Br)cc1O [Example 106] | 3 µM
36 | O=C(N[C@H](Cc1c[nH]c2ccccc12)C(=O)O)c1c(O)cccc1O [Example 4] | 0.6 µM
